# Measurements reported in ChEMBL document CHEMBL1201862, “PubChem BioAssay data set” (2004).
# Activity calls are given as the source filed them.
# Assays:
# [1] = molecular target: DNA dC->dU-editing enzyme APOBEC-3A (Homo sapiens, UniProt P31941); assay: Dose Response confirmation of small molecule APOBEC3A DNA Deaminase Inhibitors via a fluorescence-based single-stranded DNA deaminase assay. [Related pubchem assays (depositor defined):AID493011, AID493024]; format: functional
# [2] = molecular target: DNA dC->dU-editing enzyme APOBEC-3G (Homo sapiens, UniProt Q9HC16); format: functional;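 note: Dose-response counterscreen measuring inhibition of APOBEC3G DNA deaminase activity, run while confirming APOBEC3A inhibitors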
# [3] = inhibitors of Vif binding to APOBEC3G peptide, primary screen, biochemical, TR-FRET, GST-Vif 1-94, biotin-A3G peptide, dose response retest (AID 1117319); format: functional;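 note: TR-FRET signal of purified GST-Vif binding a biotinylated A3G peptide; inhibitors lower the FRET signal by blocking Vif and A3G binding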
# Fatty acid synthase = Fatty acid synthase (Homo sapiens, UniProt P49327); assay: FAS thioesterase domain inhibitors, dose response, biochemical, kinetic fluorescence intensity (AID 624326); format: functional;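 note: rate of fluorescence rise from hydrolysis of a fluorogenic O-methyl fluorescein ester substrate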
# [4] = P. falciparum 3D7-ScDHODH growth inhibitors, dose response, SYBR Green, dry powder samples (AID 1159570); format: functional, cell-based;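 note: parasite growth measured after 72 hours of compound exposure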
# [5] = HepG2 cell cytotoxicity, dose response, cytotoxicity control, plate reader, dry powder samples (AID 1159569); format: functional, cell-based;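 note: inhibitor potency with signal falling toward the positive control level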
# [6] = P. falciparum Dd2 growth inhibitors, dose response, SYBR Green, cherry-picked samples (AID 1159567); format: functional, cell-based
# [7] = P. falciparum Dd2 growth inhibitors, dose response, SYBR Green, dry powder samples (AID 1159566); format: functional, cell-based;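 note: potency for growth inhibition with lower SYBR green DNA signal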
# [8] = P. falciparum ATP4 D1247Y mutant growth inhibitors, dose response, NITD609-resistant line, SYBR Green, dry powder (AID 1159571); format: functional, cell-based;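 note: parasites synchronized at ring stage by sorbitol before testing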
# Sequence of DNA dC->dU-editing enzyme APOBEC-3G (Q9HC16 whole entry): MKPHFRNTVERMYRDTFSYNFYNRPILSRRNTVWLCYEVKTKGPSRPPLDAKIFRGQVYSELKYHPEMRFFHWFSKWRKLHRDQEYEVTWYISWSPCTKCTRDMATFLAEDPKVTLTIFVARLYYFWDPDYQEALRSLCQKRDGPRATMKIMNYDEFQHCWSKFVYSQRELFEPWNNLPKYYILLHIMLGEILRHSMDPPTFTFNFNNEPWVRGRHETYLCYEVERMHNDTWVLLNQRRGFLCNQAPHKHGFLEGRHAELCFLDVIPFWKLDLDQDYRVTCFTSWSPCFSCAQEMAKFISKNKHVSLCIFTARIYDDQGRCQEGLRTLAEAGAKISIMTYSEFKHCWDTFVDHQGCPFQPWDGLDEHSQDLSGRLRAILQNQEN
# Sequence of DNA dC->dU-editing enzyme APOBEC-3A (P31941 whole entry): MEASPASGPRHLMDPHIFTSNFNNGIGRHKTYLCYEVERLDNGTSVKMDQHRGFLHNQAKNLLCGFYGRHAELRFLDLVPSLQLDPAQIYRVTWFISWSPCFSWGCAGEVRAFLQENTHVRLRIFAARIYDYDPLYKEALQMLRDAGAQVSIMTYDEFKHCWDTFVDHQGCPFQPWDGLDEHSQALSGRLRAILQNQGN
# Sequence of Fatty acid synthase (P49327 whole entry, the tested form may be a part): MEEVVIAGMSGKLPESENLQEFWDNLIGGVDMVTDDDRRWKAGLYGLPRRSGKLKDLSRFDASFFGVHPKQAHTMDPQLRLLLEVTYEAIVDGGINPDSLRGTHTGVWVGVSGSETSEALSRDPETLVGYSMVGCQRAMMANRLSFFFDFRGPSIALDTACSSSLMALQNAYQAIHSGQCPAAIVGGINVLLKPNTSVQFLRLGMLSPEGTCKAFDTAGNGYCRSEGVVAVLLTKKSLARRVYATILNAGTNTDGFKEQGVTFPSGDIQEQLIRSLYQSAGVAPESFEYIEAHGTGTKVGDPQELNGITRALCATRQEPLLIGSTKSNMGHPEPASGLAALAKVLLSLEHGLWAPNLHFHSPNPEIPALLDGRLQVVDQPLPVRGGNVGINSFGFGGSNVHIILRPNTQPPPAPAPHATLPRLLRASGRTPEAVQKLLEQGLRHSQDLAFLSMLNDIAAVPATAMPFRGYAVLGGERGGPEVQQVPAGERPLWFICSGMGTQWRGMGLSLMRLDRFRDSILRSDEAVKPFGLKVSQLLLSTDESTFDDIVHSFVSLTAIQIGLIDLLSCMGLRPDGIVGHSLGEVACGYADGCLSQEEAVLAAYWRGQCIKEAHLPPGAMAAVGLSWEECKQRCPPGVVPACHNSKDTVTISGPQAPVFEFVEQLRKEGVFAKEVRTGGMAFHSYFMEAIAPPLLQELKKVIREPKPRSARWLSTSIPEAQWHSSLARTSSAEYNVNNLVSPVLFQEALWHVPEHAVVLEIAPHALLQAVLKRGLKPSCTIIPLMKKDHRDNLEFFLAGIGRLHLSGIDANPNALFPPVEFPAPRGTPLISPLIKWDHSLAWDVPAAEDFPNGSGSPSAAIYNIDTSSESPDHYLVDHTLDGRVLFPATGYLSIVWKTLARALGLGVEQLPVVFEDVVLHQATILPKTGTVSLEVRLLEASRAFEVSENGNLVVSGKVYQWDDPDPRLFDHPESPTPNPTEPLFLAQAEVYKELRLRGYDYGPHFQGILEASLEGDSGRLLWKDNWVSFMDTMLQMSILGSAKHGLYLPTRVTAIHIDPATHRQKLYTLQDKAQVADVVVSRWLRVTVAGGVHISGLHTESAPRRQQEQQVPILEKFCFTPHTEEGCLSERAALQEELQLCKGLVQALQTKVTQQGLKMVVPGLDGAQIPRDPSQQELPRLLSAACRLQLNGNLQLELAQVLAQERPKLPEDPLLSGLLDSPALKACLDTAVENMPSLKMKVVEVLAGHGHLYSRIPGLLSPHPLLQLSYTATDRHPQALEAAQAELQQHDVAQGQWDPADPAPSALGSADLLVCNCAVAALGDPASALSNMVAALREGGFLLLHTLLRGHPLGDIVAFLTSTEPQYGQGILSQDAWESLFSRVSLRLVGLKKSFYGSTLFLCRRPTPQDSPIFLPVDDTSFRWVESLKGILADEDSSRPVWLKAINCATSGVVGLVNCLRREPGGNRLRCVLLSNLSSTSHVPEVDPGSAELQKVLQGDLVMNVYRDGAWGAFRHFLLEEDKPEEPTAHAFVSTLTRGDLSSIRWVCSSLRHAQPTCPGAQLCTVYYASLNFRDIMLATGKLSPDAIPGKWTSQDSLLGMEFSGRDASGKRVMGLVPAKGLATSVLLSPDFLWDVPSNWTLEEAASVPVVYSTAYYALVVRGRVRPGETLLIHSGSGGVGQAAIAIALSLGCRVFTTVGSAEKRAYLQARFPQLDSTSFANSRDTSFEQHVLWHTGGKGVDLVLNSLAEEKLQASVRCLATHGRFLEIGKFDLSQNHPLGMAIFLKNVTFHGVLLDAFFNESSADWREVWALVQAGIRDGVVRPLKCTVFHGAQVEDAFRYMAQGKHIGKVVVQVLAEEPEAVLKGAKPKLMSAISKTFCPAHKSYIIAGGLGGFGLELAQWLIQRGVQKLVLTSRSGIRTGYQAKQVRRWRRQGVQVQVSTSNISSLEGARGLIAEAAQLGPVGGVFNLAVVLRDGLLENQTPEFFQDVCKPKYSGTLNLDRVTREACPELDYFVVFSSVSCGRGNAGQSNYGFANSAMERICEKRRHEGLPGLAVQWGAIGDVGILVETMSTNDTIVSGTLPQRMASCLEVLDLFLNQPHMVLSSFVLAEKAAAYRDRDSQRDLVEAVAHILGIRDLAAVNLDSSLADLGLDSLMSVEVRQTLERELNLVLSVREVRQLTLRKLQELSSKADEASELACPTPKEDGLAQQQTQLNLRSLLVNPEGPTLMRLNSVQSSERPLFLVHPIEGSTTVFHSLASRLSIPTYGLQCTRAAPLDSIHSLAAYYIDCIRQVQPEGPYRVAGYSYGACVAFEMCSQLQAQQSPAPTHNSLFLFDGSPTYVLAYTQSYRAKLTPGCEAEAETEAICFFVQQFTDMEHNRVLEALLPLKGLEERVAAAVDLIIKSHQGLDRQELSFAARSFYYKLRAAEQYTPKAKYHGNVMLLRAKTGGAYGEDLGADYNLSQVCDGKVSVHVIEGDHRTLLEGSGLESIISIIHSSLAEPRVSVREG
Compound,IC50 [3],AC50 [4],AC50 [5],AC50 [6],AC50 [7],AC50 [8],other results
C=CC[n+]1c2n(c3ccccc3c1=O)CCCCC2,,,,,,,IC50 [1]: 3.57 µM (active); IC50 [2]: 6.84 µM (active)
O=C(OCc1ccc([N+](=O)[O-])cc1)c1cc([N+](=O)[O-])ccc1N1CCOCC1,,,,,,,IC50 (Fatty acid synthase): 2.73 µM (active)
CN1c2ccsc2/C(=N/NC(=O)c2c(F)cccc2F)CS1(=O)=O,> 100 µM (active),,,,,,
N#Cc1ccc(-c2ccc([C@@H]3[C@@H]4CN(C(=O)C5CCCC5)C[C@H]3N4)cc2)cc1,,3.48 µM (active),51 µM (active),2.72 µM (active),2.25 µM (active),3.53 µM (active),
COc1ccc2c3c([nH]c2c1)[C@H](CO)N(C(=O)Nc1ccc(F)cc1)CC31CCN(Cc2cc(-c3ccccc3)on2)CC1,,1.47 µM (active),30.3 µM (active),1.43 µM (active),0.452 µM (active),0.876 µM (active),
C[C@@H]1CN([C@H](C)CO)C(=O)c2cccc(NC(=O)c3nc4ccccc4s3)c2O[C@H]1CN(C)C(=O)NC1CCCCC1,,0.114 µM (active),> 100 µM (inactive),2.73 µM (active),0.196 µM (active),0.152 µM (active),
O=c1cc(O)nc(SCc2ccccc2Cl)[nH]1,> 100 µM (active),,,,,,

# More lines, main results first:
IC50 [3],Compound,AC50 [4],AC50 [5],AC50 [6],AC50 [7],AC50 [8],other results
> 100 µM (active),O=C(NCc1ccco1)C1CCCN(S(=O)(=O)c2cccc3nsnc23)C1 (configuration not stated),,,,,,
> 100 µM (active),CN1CCN(C(=O)c2ccc(N(C)S(=O)(=O)c3cccs3)cc2)CC1,,,,,,
